In article doi:10.1101/2020.03.06.976563v1 (biorxiv, 2020):
pKi: −log10 of the molar value. Like-named read-outs stand apart in the source and are kept apart here.

Columns and labels:
[1] = molecular target: T1, STK16 (Homo sapiens, UniProt O75716); assay: biochemical
[2] = molecular target: T2, AAK1 (Homo sapiens, UniProt Q2M2I8); assay: biochemical
[3] = molecular target: T3, cyclin G associated kinase (GAK), kinase domain (Homo sapiens, UniProt O14976); assay: biochemical
T3 sequence (O14976 12-347 limits assumed): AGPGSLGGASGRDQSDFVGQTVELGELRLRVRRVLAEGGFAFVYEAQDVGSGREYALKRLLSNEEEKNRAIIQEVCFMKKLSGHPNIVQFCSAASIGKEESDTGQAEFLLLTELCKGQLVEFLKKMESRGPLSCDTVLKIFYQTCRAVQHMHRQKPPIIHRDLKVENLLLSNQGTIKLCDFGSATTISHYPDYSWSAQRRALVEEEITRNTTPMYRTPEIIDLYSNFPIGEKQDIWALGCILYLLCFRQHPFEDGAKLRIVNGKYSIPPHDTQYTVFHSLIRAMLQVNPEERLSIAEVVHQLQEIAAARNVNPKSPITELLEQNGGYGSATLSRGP

[4] = molecular target: T4, BMP2K (Homo sapiens, UniProt Q9NSY1); assay: biochemical
[5] = molecular target: T2, AAK1; assay: biochemical; remark: listed apart in the source
[6] = molecular target: T1, STK16; assay: biochemical; remark: listed apart in the source
[7] = molecular target: T4, BMP2K; assay: biochemical; remark: listed apart in the source
[8] = molecular target: T3, cyclin G associated kinase (GAK), kinase domain; assay: biochemical; remark: listed apart in the source
[9] = molecular target: T3, cyclin G associated kinase (GAK), kinase domain; assay: TR-FRET ligand binding displacement assay, 16-point dose response

T2 sequence (Q2M2I8 whole entry, the tested form may be a part): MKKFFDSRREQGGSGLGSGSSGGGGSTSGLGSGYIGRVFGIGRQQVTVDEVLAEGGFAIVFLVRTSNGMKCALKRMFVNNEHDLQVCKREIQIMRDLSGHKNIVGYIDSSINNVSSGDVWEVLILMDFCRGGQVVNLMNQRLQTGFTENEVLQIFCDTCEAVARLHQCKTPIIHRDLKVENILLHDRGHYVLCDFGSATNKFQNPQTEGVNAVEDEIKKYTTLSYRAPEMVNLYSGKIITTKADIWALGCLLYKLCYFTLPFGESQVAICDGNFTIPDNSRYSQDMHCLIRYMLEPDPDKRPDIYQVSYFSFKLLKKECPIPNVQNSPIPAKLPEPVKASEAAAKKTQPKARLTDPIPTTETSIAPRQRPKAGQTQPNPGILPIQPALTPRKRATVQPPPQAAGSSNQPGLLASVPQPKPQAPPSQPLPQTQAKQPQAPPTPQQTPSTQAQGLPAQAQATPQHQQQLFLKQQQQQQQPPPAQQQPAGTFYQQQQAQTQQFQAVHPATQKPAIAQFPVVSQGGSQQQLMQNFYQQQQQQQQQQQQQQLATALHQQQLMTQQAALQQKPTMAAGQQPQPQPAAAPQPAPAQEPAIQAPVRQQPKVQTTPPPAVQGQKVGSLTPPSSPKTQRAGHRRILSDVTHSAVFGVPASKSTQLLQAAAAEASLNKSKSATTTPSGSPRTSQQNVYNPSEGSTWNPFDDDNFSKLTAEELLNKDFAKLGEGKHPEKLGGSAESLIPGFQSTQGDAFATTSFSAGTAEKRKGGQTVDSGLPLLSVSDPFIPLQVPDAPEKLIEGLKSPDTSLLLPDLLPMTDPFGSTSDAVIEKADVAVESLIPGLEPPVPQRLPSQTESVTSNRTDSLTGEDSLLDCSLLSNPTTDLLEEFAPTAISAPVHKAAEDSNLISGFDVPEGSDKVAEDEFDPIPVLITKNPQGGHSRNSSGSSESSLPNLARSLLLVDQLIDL
T4 sequence (Q9NSY1 whole entry): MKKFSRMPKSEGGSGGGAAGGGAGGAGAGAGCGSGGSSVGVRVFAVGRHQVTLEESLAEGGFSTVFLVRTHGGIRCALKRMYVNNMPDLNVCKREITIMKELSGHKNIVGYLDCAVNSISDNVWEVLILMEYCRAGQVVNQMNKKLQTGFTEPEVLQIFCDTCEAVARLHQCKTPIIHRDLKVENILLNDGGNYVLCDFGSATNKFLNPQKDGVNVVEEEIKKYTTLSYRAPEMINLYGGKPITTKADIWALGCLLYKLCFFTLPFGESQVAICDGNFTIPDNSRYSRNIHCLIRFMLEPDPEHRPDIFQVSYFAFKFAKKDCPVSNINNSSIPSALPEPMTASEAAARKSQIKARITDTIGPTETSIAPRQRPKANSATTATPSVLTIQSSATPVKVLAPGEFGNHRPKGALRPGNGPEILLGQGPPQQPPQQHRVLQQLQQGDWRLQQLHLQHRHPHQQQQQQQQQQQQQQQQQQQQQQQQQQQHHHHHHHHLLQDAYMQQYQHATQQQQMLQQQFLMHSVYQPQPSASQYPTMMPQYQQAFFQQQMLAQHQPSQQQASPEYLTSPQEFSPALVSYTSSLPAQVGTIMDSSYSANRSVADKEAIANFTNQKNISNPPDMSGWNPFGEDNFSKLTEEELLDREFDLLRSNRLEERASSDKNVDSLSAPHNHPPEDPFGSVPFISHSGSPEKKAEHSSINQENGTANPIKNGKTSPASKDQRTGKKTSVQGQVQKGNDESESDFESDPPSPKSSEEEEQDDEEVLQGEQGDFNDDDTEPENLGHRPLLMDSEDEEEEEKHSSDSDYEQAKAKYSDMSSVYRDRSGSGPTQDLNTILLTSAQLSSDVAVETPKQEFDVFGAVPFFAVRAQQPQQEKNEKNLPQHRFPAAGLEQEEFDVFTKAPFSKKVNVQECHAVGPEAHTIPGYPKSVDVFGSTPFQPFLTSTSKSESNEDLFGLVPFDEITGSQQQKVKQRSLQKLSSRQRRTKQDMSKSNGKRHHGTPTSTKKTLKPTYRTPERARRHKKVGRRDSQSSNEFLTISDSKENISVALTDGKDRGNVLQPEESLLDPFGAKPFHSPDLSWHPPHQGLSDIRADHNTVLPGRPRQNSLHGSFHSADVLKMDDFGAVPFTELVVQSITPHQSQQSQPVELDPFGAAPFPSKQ
T1 sequence (O75716 whole entry): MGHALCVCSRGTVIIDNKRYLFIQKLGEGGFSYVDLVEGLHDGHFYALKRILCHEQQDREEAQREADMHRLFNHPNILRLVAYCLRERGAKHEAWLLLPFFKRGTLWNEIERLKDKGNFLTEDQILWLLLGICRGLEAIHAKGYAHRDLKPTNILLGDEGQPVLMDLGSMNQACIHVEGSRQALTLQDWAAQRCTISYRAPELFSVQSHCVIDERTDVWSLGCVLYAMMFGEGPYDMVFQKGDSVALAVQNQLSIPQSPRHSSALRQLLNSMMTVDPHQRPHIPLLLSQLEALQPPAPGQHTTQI

Row | Compound | pKi [1] | pKi [2] | pKi [3] | pKi [4] | pKi [5] | pKi [6] | pKi [7] | pKi [8] | pKi [9]
1 | OCc1ccccc1Nc1ccnc2ccc(C(F)(F)F)cc12 [compound 12, (2-{[6-(trifluoromethyl)quinolin-4-yl]amino}phenyl)methanol] | 5.30 | 5.07 | 7.39 | 4.80 | – | – | – | – | –
2 | CC(C)(C)c1cccc(Nc2ccnc3ccc(Br)cc23)c1 [compound 34, 6-bromo-N-(3-tert-butylphenyl)quinolin-4-amine] | – | – | – | – | < 4.00 | < 4.00 | < 4.00 | 5.59 | –
3 | Oc1cccc(Nc2ccnc3ccc(C(F)(F)F)cc23)c1 [compound 5, 3-((6-(trifluoromethyl)quinolin-4-yl)amino)phenol] | 5.52 | 5.59 | 8.33 | 5.24 | – | – | – | – | –
4 | COc1cccc(Nc2ccnc3ccc(Br)cc23)c1 [compound 13, 6-bromo-N-(3-methoxyphenyl)quinolin-4-amine] | – | – | – | – | 5.52 | 4.49 | 5.15 | 8.54 | –
5 | COc1cccc(Nc2ncnc3ccc(Br)cc23)c1 [compound 29, 6-bromo-N-(3-methoxyphenyl)quinazolin-4-amine] | – | – | – | – | 6.41 | 5.26 | 5.89 | 7.96 | –
6 | Oc1cccc(Nc2ccnc3ccccc23)c1 [compound 16, 3-(quinolin-4-ylamino)phenol] | < 4.00 | 5.18 | 7.92 | 4.52 | – | – | – | – | –
7 | COc1cccc(Nc2ccnc3ccccc23)c1 [compound 15, N-(3-methoxyphenyl)quinolin-4-amine] | < 4.00 | 4.60 | 7.57 | < 4.00 | – | – | – | – | –
8 | Brc1ccc2nccc(Nc3cccc4c3OCO4)c2c1 [compound 27, N-(Benzo[d][1,3]dioxol-4-yl)-6-bromoquinolin-4-amine] | – | – | – | – | < 4.00 | < 4.00 | < 4.00 | – | –
9 | O=[N+]([O-])c1cccc(Nc2ccnc3ccc(C(F)(F)F)cc23)c1 [compound 6, N-(3-nitrophenyl)-6-(trifluoromethyl)quinolin-4-amine] | < 4.00 | < 4.00 | 6.68 | < 4.00 | – | – | – | – | –
10 | COc1cccc(Nc2ccnc3ccc(S(C)(=O)=O)cc23)c1 [compound 19, 6-methanesulfonyl-N-(3-methoxyphenyl)quinolin-4-amine] | < 4.00 | 4.64 | 7.52 | 4.72 | – | – | – | – | –
11 | CN(C)c1cccc(Nc2ccnc3ccccc23)c1 [compound 10, N1 ,N1-dimethyl-N3-(quinolin-4-yl)benzene-1,3-diamine] | < 4.00 | 4.54 | 6.01 | < 4.00 | – | – | – | – | –
12 | Oc1cccc(Nc2ccnc3ccc(Br)cc23)c1 [compound 14, 3-((6-bromoquinolin-4-yl)amino)phenol] | – | – | – | – | 6.30 | 5.24 | 5.70 | 8.92 | –
13 | COc1ccc2nccc(Nc3cccc(O)c3)c2c1 [compound 18, 3-((6-methoxyquinolin-4-yl)amino)phenol] | 4.57 | 5.80 | 8.24 | 5.14 | – | – | – | – | –
14 | CN(C)c1cccc(Nc2ccnc3ccc(C(F)(F)F)cc23)c1 [compound 8, ^1N,^1N-dimethyl-3-N-[6-(trifluoromethyl)quinolin-4-yl]benzene-1,3-diamine] | 4.89 | < 4.00 | – | < 4.00 | – | – | – | – | 6.19
15 | O=[N+]([O-])c1cccc(Nc2ccnc3ccc(Br)cc23)c1 [compound 21, 6-bromo-N-(3-nitrophenyl)quinolin-4-amine] | – | – | – | – | 4.40 | < 4.00 | < 4.00 | 7.25 | –
16 | CC(C)(C)Oc1cccc(Nc2ccnc3ccc(Br)cc23)c1 [compound 33, 6-bromo-N-[3-(tert-butoxy)phenyl]quinolin-4-amine] | – | – | – | – | 4.82 | 4.92 | < 4.00 | 5.66 | –
17 | COc1cccc(Nc2ccnc3ccc(OC)cc23)c1 [compound 17, 6-methoxy-N-(3-methoxyphenyl)quinolin-4-amine] | < 4.00 | 5.04 | 8.10 | 4.59 | – | – | – | – | –
18 | Brc1ccc2nccc(Nc3ccc4c(c3)OCO4)c2c1 [compound 25, N-(2H-1,3-benzodioxol-5-yl)-6-bromoquinolin-4-amine] | – | – | – | – | 5.28 | 5.00 | 4.92 | 7.46 | –
19 | FS(F)(F)(F)(F)c1cccc(Nc2ccnc3ccc(Br)cc23)c1 [compound 32, 6-bromo-N-(3-(pentafluoro-λ^6-sulfaneyl)phenyl)quinolin-4-amine] | – | – | – | – | < 4.00 | < 4.00 | < 4.00 | 5.31 | –
20 | OCc1cccc(Nc2ccnc3ccc(C(F)(F)F)cc23)c1 [compound 11, (3-{[6-(trifluoromethyl)quinolin-4-yl]amino}phenyl)methanol] | 4.70 | 5.00 | 7.22 | 4.82 | – | – | – | – | –
